These results are taken from patent US10329324B2 (viDA Therapeutics Inc., priority 2013, dated 2019).

The target of this assay is T1, human Granzyme B (hGzmB) (Homo sapiens, UniProt P10144).
T1 construct: purchased Froelich Lab, Northshore University Health Systems Research Institute, Evanston, Ill., USA
T1 sequence (P10144 21-247): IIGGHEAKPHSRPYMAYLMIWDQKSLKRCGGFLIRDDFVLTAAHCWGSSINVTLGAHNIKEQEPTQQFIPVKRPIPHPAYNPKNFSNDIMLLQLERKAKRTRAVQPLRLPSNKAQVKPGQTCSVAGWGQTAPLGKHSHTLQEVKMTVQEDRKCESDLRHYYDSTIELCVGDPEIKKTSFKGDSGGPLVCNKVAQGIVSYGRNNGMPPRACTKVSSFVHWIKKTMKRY
The assay can be described thus: Human Granzyme B enzymatic inhibition assay (fluorogenic, kinetic). The settings on record: activity codes, Table 7; read-out: IC50 Activity Range. Type of assay: biochemical. The protocol:
A specific 2× assay buffer was prepared for the enzyme to be tested (see Table 2 for final 1× assay buffer compositions). If the assay buffer included DTT, it was added immediately prior to running the assay. A 2× enzyme mix was prepared (see Table 3 for enzyme assay conditions) at 80 uL per well. Compounds were screened at one or two appropriate concentrations (to determine the percent inhibition at those concentrations) and/or a full dose response curve (typically 8 points, to identify the IC50) in duplicate, triplicate, or higher replicates as needed. An appropriate control was also assessed in full dose response, in duplicate for each assay/plate. Background control wells consisted of 1× assay buffer, DMSO (5% v/v) and substrate. Positive control wells consisted of enzyme, DMSO (5% v/v) and substrate. Test compounds and control compounds were diluted in DMSO to […] the final desired concentration. For example, a test compound may be tested in dose response, in serial, tripling dilution condition starting at 20 uM and ending at 9.1 nM (or any appropriate concentration range and dilution scheme). Control compounds were prepared similarly. Diluted compounds were prepared in a dilution plate and transferred to the reaction plate (96-well medium binding plate (Greiner Bio-One FLUOTRAC™)) to allow for the desired final concentrations when added to the enzyme with AB. After mixing, the reaction plate was placed on a shaker (at 300 RPM) for 5 min, followed by incubation (covered) on the bench, for 20 min. Plates were warmed to reaction temperature (see Table 3) for a total incubation time of 30 min. Plates so prepared were ready for addition of substrate and the subsequent reaction.
(§1) An appropriate substrate for each assay was prepared in advance at 2× the final desired concentration (see Table 2) in DMSO. The appropriate substrate mix was added to each appropriate well on the reaction plate, and the plate was read immediately in the TECAN plate reader (TECAN INFINITE® M1000 Pro), set to the correct wavelength as needed for each assay (see Table 3) using 25 cycles, kinetic interval of 1 min, number of reads per well of 20 with shaking set to 1 s, double orbital, 2 mm amplitude. For fluorescent assays the gain was set to optimal (50%).
An in vitro fluorogenic detection assay for assessing the IC50 and/or percent inhibition at a given concentration of inhibitors against human Granzyme B (hGzmB) enzyme was performed as described in Example D1. When appropriate, percent inhibition data was collected and fitted to generate IC50 data using GraphPad Prism 5 (GraphPad Software, La Jolla Calif. USA, www.graphpad.com) and its non-linear regression analysis tools or other equivalent tools. […]
as §1, with “5)” for “2)”, “assay buffer. 30 uL of the” for “DMSO. The”, “6)” for “3)”, “15” for “25”, “(100% with gain regulation) for all assays except human GzmB which was set to 85 (with the z set at 23000 um).” for “(50%).”
An in vitro fluorogenic detection assay for assessing the IC50 and/or percent inhibition at a given concentration of inhibitors against human Granzyme B (hGzmB) enzyme was performed as described in Example D5. When appropriate, percent inhibition data was collected and fitted to generate IC50 data using GraphPad Prism 5 (GraphPad Software, La Jolla Calif. USA, www.graphpad.com) and its non-linear regression analysis tools or other equivalent tools.
The term IC50 denotes the concentration that inhibits the measured activity by half. As for `CC(C)(C)OC[C@H](NC(=O)Cc1ccccc1)C(=O)NCC(=O)N1c2ccccc2C[C@H]1C(=O)NCc1nn[nH]n1` [Example C8, (2S)-1-{2-[(2S)-3-(Tert-Butoxy)-2-(2-Phenylacetamido)Propanamido]Acetyl}-N-(2H-1,2,3,4-Tetrazol-5-Ylmethyl)-2,3-Dihydro-1H-Indole-2-Carboxamide], the IC50 is > 10 µM.
As for `C[C@@H](OC(C)(C)C)[C@H](NC(=O)Cc1ccccc1)C(=O)NCC(=O)N1c2ccccc2C[C@H]1C(=O)NCc1nn[nH]n1` [Example C9, (2S)-1-{2-[(2S,3R)-3-(Tert-Butoxy)-2-(2-Phenylacetamido)Butanamido]Acetyl}-N-(2H-1,2,3,4-Tetrazol-5-Ylmethyl)-2,3-Dihydro-1H-Indole-2-Carboxamide], the IC50 is > 10 µM.
Next, `C[C@H](OC(C)(C)C)[C@H](NC(=O)Cc1ccccc1)C(=O)NCC(=O)N1c2ccccc2C[C@H]1C(=O)NCc1nn[nH]n1` [Example C10, (2S)-1-{2-[(2S,3S)-3-(Tert-Butoxy)-2-(2-Phenylacetamido)Butanamido]Acetyl}-N-(2H-1,2,3,4-Tetrazol-5-Ylmethyl)-2,3-Dihydro-1H-Indole-2-Carboxamide]: > 10 µM.
As to `CC[C@H](C)[C@H](NC(=O)Cc1ccccc1)C(=O)N[C@@H](CC(=O)O)C(=O)N1c2ccccc2C[C@H]1C(=O)NCc1nn[nH]n1` [Example C14], the IC50 was 1 to 10 µM.
With `CC[C@H](C)[C@H](NC(=O)Cc1ccccc1)C(=O)N[C@H](CC(=O)O)C(=O)N1c2ccccc2C[C@H]1C(=O)NCc1nn[nH]n1` [Example C15, (3R)-3-[(2S,3S)-3-Methyl-2-(2-Phenylacetamido)Pentanamido]-4-Oxo-4-[(2S)-2-[(2H-1,2,3,4-Tetrazol-5-Ylmethyl)Carbamoyl]-2,3-Dihydro-1H-Indol-1-Yl]Butanoic Acid] the figure was 1 to 10 µM.
`CC[C@H](C)[C@H](NC(=O)Cc1ccccc1)C(=O)N[C@H](CCC(=O)O)C(=O)N1c2ccccc2C[C@H]1C(=O)NCc1nn[nH]n1` [Example C16, (4R)-4-[(2S,3S)-3-Methyl-2-(2-Phenylacetamido)Pentanamido]-5-Oxo-5-[(2S)-2-[(2H-1,2,3,4-Tetrazol-5-Ylmethyl)Carbamoyl]-2,3-Dihydro-1H-Indol-1-Yl]Pentanoic Acid]: the half-inhibitory concentration (IC50) was 0.1 to 1 µM.
As to `CC[C@H](C)[C@H](NC(=O)Cc1ccccc1)C(=O)N[C@@H](CCCC(=O)O)C(=O)N1c2ccccc2C[C@H]1C(=O)NCc1nn[nH]n1` [Example C17, (5S)-5-[(2S,3S)-3-Methyl-2-(2-Phenylacetamido)Pentanamido]-6-Oxo-6-[(2S)-2-[(2H-1,2,3,4-Tetrazol-5-Ylmethyl)Carbamoyl]-2,3-Dihydro-1H-Indol-1-Yl]Hexanoic Acid], the IC50 is 1 to 10 µM.
Next, `CC[C@H](C)[C@H](NC(=O)Cc1ccccc1)C(=O)N[C@@H](CCCCN)C(=O)N1c2ccccc2C[C@H]1C(=O)NCc1nn[nH]n1` [Example C18, (2S)-1-[(2S)-6-Amino-2-[(2S,3S)-3-Methyl-2-(2-Phenylacetamido)Pentanamido]Hexanoyl]-N-(2H-1,2,3,4-Tetrazol-5-Ylmethyl)-2,3-Dihydro-1H-Indole-2-Carboxamide]: > 10 µM.
With `CC[C@H](C)[C@H](NC(=O)Cc1ccccc1)C(=O)NCC(=O)N1c2cc(NC(=O)OC(C)(C)C)ccc2C[C@H]1C(=O)NCc1nn[nH]n1` [Example C19, Tert-Butyl N-[(2S)-1-{2-[(2S,3S)-3-Methyl-2-(2-Phenylacetamido)Pentanamido]Acetyl}-2-[(2H-1,2,3,4-Tetrazol-5-Ylmethyl)Carbamoyl]-2,3-Dihydro-1H-Indol-6-Yl]Carbamate] the figure was 0.1 to 1 µM; with `CC[C@H](C)[C@H](NC(=O)Cc1ccccc1)C(=O)NCC(=O)N1c2cc(NCc3ccccc3)ccc2C[C@H]1C(=O)NCc1nn[nH]n1` [Example C21, (2S)-6-(Benzylamino)-1-{2-[(2S,3S)-3-Methyl-2-(2-Phenylacetamido)Pentanamido]Acetyl}-N-(2H-1,2,3,4-Tetrazol-5-Ylmethyl)-2,3-Dihydro-1H-Indole-2-Carboxamide], > 10 µM.
With `O=C(O)CCC(=O)N[C@H](C(=O)NCC(=O)N1c2ccccc2C[C@H]1C(=O)NCc1nn[nH]n1)c1ccsc1` [Example C23, 3-{[(S)-({2-Oxo-2-[(2S)-2-[(2H-1,2,3,4-Tetrazol-5-Ylmethyl)Carbamoyl]-2,3-Dihydro-1H-Indol-1-Yl]Ethyl}Carbamoyl)(Thiophen-3-Yl)Methyl]Carbamoyl}Propanoic Acid], the IC50 lay in the range of 1 to 10 µM.
Next, `O=C(O)CCC(=O)N1CCCC[C@H]1C(=O)NCC(=O)N1c2ccccc2C[C@H]1C(=O)NCc1nn[nH]n1` [Example C25, 4-Oxo-4-[(2S)-2-({2-Oxo-2-[(2S)-2-[(2H-1,2,3,4-Tetrazol-5-Ylmethyl)Carbamoyl]-2,3-Dihydro-1H-Indol-1-Yl]Ethyl}Carbamoyl)Piperidin-1-Yl]Butanoic Acid]: 1 to 10 µM.
Regarding `CC[C@H](C)[C@H](Nc1ncccn1)C(=O)NCC(=O)N1c2ccccc2C[C@H]1C(=O)NCc1nn[nH]n1` [Example C26, (2S)-1-{2-[(2S,3S)-3-Methyl-2-[(Pyrimidin-2-Yl)Amino]Pentanamido]Acetyl}-N-(2H-1,2,3,4-Tetrazol-5-Ylmethyl)-2,3-Dihydro-1H-Indole-2-Carboxamide], the IC50 is > 10 µM.
As for `O=C(O)CCC(=O)N1CCC[C@H]1C(=O)NCC(=O)N1c2ccccc2C[C@H]1C(=O)NCc1nn[nH]n1` [Example C28, 4-Oxo-4-[(2S)-2-({2-Oxo-2-[(2S)-2-[(2H-1,2,3,4-Tetrazol-5-Ylmethyl)Carbamoyl]-2,3-Dihydro-1H-Indol-1-Yl]Ethyl}Carbamoyl)Pyrrolidin-1-Yl]Butanoic Acid], the IC50 is > 10 µM.
`O=C(O)CCC(=O)NC1(C(=O)NCC(=O)N2c3ccccc3C[C@H]2C(=O)NCc2nn[nH]n2)CCCC1` [Example C29, 3-{[1-({2-Oxo-2-[(2S)-2-[(2H-1,2,3,4-Tetrazol-5-Ylmethyl)Carbamoyl]-2,3-Dihydro-1H-Indol-1-Yl]Ethyl}Carbamoyl)Cyclopentyl]Carbamoyl}Propanoic Acid]: the IC50 is > 10 µM.
With `CC[C@H](C)[C@H](NC(=O)Cc1ccccc1)C(=O)NCC(=O)N1c2c(cccc2NC(C)=O)C[C@H]1C(=O)NCc1nn[nH]n1` [Example C30, (2S)-7-Acetamido-1-{2-[(2S,3S)-3-Methyl-2-(2-Phenylacetamido)Pentanamido]Acetyl}-N-(2H-1,2,3,4-Tetrazol-5-Ylmethyl)-2,3-Dihydro-1H-Indole-2-Carboxamide] the figure was > 10 µM.
For the molecule `CC[C@H](C)[C@H](NC(=O)Cc1ccccc1)C(=O)NCC(=O)N1c2ccc(NC(=O)OC(C)(C)C)cc2C[C@H]1C(=O)NCc1nn[nH]n1` [Example C31, Tert-Butyl N-[(2S)-1-{2-[(2S,3S)-3-Methyl-2-(2-Phenylacetamido)Pentanamido]Acetyl}-2-[(2H-1,2,3,4-Tetrazol-5-Ylmethyl)Carbamoyl]-2,3-Dihydro-1H-Indol-5-Yl]Carbamate], the IC50 was 0.1 to 1 µM.
As to `CC[C@H](C)[C@H](NC(=O)Cc1ccccc1)C(=O)NCC(=O)N1c2ccc(NC(C)(C)C)cc2C[C@H]1C(=O)NCc1nn[nH]n1` [Example C33, (2S)-5-(Tert-Butylamino)-1-{2-[(2S,3S)-3-Methyl-2-(2-Phenylacetamido)Pentanamido]Acetyl}-N-(2H-1,2,3,4-Tetrazol-5-Ylmethyl)-2,3-Dihydro-1H-Indole-2-Carboxamide], the IC50 is > 10 µM.
Take `CC[C@H](C)[C@H](NC(=O)Cc1ccccc1)C(=O)NCC(=O)N1c2ccc([N+](C)(C)C)cc2C[C@H]1C(=O)NCc1nn[nH]n1` [Example C34, (2S)—N,N,N-Trimethyl-1-{2-[(2S,3S)-3-Methyl-2-(2-Phenylacetamido)Pentanamido]Acetyl}-2-[(2H-1,2,3,4-Tetrazol-5-Ylmethyl)Carbamoyl]-2,3-Dihydro-1H-Indol-5-Aminium Iodide]: the concentration for half-maximal inhibition (IC50) is > 10 µM.
